These results are taken from patent publication US20230322846A9, “NEUROACTIVE STEROIDS AND THEIR METHODS OF USE” (SAGE THERAPEUTICS, INC., priority 2018, published 2023).

In the experiment the target is [35S]-TBPS binding, rat brain cortical membranes. Put plainly: Steroid inhibition of [35S]-TBPS binding. To be noted: 3 nM [35S]-TBPS, in the presence of 5 mM GABA. On the procedure:
[^35S]-t-Butylbicyclophosphorothionate (TBPS) binding assays using rat brain cortical membranes in the presence of 5 mM GABA has been described (Gee et al, J. Pharmacol. Exp. Ther. 1987, 241, 346-353; Hawkinson et al, Mol. Pharmacol. 1994, 46, 977-985; Lewin, A. H et al., Mol. Pharmacol. 1989, 35, 189-194).
Briefly, cortices are rapidly removed following decapitation of carbon dioxide-anesthetized Sprague-Dawley rats (200-250 g). The cortices are homogenized in 10 volumes of ice-cold 0.32 M sucrose using a glass/teflon homogenizer and centrifuged at 1500×g for 10 min at 4° C. The resultant supernatants are centrifuged at 10,000×g for 20 min at 4° C. to obtain the P2 pellets. The P2 pellets are resuspended in 200 mM NaCl/50 mM Na—K phosphate pH 7.4 buffer and centrifuged at 10,000×g for 10 min at 4° C. This washing procedure is repeated twice and the pellets are resuspended in 10 volumes of buffer. Aliquots ([…]) of the membrane suspensions are incubated with 3 nM [^35S]-TBPS and […] aliquots of test drug dissolved in dimethyl sulfoxide (DMSO) (final 0.5%) in the presence of 5 mM GABA. The incubation is brought to a final volume of 1.0 mL with buffer. Nonspecific binding is determined in the presence of […] and ranged from 15 to 25%. Following a 90 min incubation at room temp, the assays are terminated by filtration through glass fiber filters (Schleicher and Schuell No. 32) using a cell harvester (Brandel) and rinsed three times with ice-cold buffer. Filter bound radioactivity is measured by liquid scintillation spectrometry. Non-linear curve fitting of the overall data for each drug averaged for each concentration is done using Prism (GraphPad). […] The concentration of test compound producing 50% inhibition (IC50) of specific binding and the maximal extent of inhibition (Imax) are determined for the individual experiments with the same model used for the overall data and then the means±SEM.s of the individual experiments are calculated.
Various compounds are or can be screened to determine their potential as modulators of [^35S]-TBPS binding in vitro. These assays are or can be performed in accordance with the above

Where only a bound is given, the exact number is not on record here.

As a reminder, the IC50 is the point on the concentration scale where inhibition reaches its midpoint.

With `C[C@@H]([C@H]1CC[C@H]2[C@@H]3CC[C@@H]4C[C@](C)(O)CC[C@@H]4[C@H]3CC[C@]12C)n1cc(C#N)cn1` [Example 157, 1-((S)-1-((3R,5R,8R,9R,10S,13S,14S,17S)-3-hydroxy-3,13-dimethylhexadecahydro-1H-cyclopenta[a]phenanthren-17-yl)ethyl)-1H-pyrazole-4-carbonitrile], the IC50 was 1000 to 10000 nM.
With `COC[C@@]1(O)CC[C@H]2[C@H](CC[C@@H]3[C@@H]2CC[C@]2(C)[C@@H]([C@@H](C)NC(=O)c4ccc(F)cc4F)CC[C@@H]32)C1` [Example 134], the IC50 was less than 100 nM.
The value for `CCOC[C@@]1(O)CC[C@@]2(C)[C@H](CC[C@@H]3[C@@H]2CC[C@]2(C)[C@@H]([C@@H](C)Cn4ccc(C#N)n4)CC[C@@H]32)C1` [Example 279, 1-((R)-2-((3R,5R,8R,9S,10S,13S,14S,17R)-3-(ethoxymethyl)-3-hydroxy-10,13-dimethylhexadecahydro-1H-cyclopenta[a]phenanthren-17-yl)propyl)-1H-pyrazole-3-carbonitrile] was less than 100 nM.
Regarding `COC[C@@]1(O)CC[C@H]2[C@H](CC[C@@H]3[C@@H]2CC[C@]2(C)[C@@H]([C@@H](C)NC(=O)c4ccc(C#N)cc4F)CC[C@@H]32)C1` [Example 131], the IC50 was less than 100 nM.
As for `C[C@@H](Cc1ncc(CO)s1)[C@H]1CC[C@H]2[C@@H]3CC[C@@H]4C[C@](C)(O)CC[C@@H]4[C@H]3CC[C@]12C` [Example 428], the figure is less than 100 nM.
As for `CCOC[C@@]1(O)CC[C@H]2[C@H](CC[C@@H]3[C@@H]2CC[C@]2(C)[C@@H]([C@@H](C)Nc4ccc(-n5ccc(C#N)n5)nc4)CC[C@@H]32)C1` [Example 264], the figure is 100 to 1000 nM.
As for `CCOC[C@@]1(O)CC[C@H]2[C@H](CC[C@@H]3[C@@H]2CC[C@]2(C)[C@@H]([C@H](Nc4ccc(C#N)cc4C)C(F)(F)F)CC[C@@H]32)C1` [Example 487, 4-(((S)-1-((3R,5R,8R,9R,10S,13S,14S,17S)-3-(ethoxymethyl)-3-hydroxy-13-methylhexadecahydro-1H-cyclopenta[a]phenanthren-17-yl)-2,2,2-trifluoroethyl)amino)-3-methylbenzonitrile], the figure is 100 to 1000 nM.
Consider `CN(C[C@H]1CC[C@H]2[C@@H]3CC[C@@H]4C[C@](C)(O)CC[C@@H]4[C@H]3CC[C@]12C)C(=O)c1ccccc1` [Example 2, N-(((3R,5R,8R,9R,10S,13S,14S,17S)-3-hydroxy-3,13-dimethylhexadecahydro-1H-cyclopenta[a]phenanthren-17-yl)methyl)-N-methylbenzamide], for which the IC50 lay in the range of 100 to 1000 nM.
The value for `C[C@H]([C@H]1CC[C@H]2[C@@H]3CC[C@@H]4C[C@](C)(O)CC[C@@H]4[C@H]3CC[C@]12C)N(C)c1ccccc1` [Example 38, (3R,5R,8R,9R,10S,13S,14S,17S)-3,13-dimethyl-17-((R)-1-(methyl(phenyl)amino)ethyl)hexadecahydro-1H-cyclopenta[a]phenanthren-3-ol] was 100 to 1000 nM.
As for `C[C@H](Cn1nccn1)[C@H]1CC[C@H]2[C@@H]3CC[C@H]4C[C@](C)(O)CC[C@@H]4[C@H]3CC[C@]12C` [Example 58, (3R,5S,8R,9R,10S,13S,14S,17R)-17-((S)-1-(2H-1,2,3-triazol-2-yl)propan-2-yl)-3,13-dimethylhexadecahydro-1H-cyclopenta[a]phenanthren-3-ol], the figure is 1000 to 10000 nM; as for `COC[C@@]1(O)CC[C@H]2[C@H](CC[C@@H]3[C@@H]2CC[C@]2(C)[C@@H]([C@@H](C)NC(=O)c4ccc(OC(F)(F)F)cc4)CC[C@@H]32)C1` [Example 111], less than 100 nM; as for `C[C@@H](Cn1ccnn1)[C@H]1CC[C@H]2[C@@H]3CC[C@H]4C[C@](C)(O)CC[C@@H]4[C@H]3CC[C@]12C` [Example 59, (3R,5S,8R,9R,10S,13S,14S,17R)-17-((R)-1-(1H-1,2,3-triazol-1-yl)propan-2-yl)-3,13-dimethylhexadecahydro-1H-cyclopenta[a]phenanthren-3-ol], 100 to 1000 nM.
The value for `COC[C@@]1(O)CC[C@H]2[C@H](CC[C@@H]3[C@@H]2CC[C@]2(C)[C@@H]([C@@H](C)NC(=O)c4ccc(F)cc4)CC[C@@H]32)C1` [Example 113] was 100 to 1000 nM; that for `C[C@@H](NC(=O)c1ccccn1)[C@H]1CC[C@H]2[C@@H]3CC[C@@H]4C[C@](C)(O)CC[C@@H]4[C@H]3CC[C@]12C` [Example 100] was 100 to 1000 nM.
In the case of `CCC[C@@]1(O)CC[C@H]2[C@@H](CC[C@@H]3[C@@H]2CC[C@]2(C)[C@@H]([C@H](C)Cn4nnc(C)n4)CC[C@@H]32)C1` [Example 330, (3R,5S,8R,9R,10S,13S,14S,17R)-13-methyl-17-((S)-1-(5-methyl-2H-tetrazol-2-yl)propan-2-yl)-3-propylhexadecahydro-1H-cyclopenta[a]phenanthren-3-ol], the IC50 is not below 10000 nM.
The value for `CCC[C@@]1(O)CC[C@@]2(C)[C@H](CC[C@@H]3[C@@H]2CC[C@]2(C)[C@@H]([C@@H](C)Cn4nnnc4C)CC[C@@H]32)C1` [Example 315, (3R,5R,8R,9S,10S,13S,14S,17R)-10,13-dimethyl-17-((R)-1-(5-methyl-1H-tetrazol-1-yl)propan-2-yl)-3-propylhexadecahydro-1H-cyclopenta[a]phenanthren-3-ol] was less than 100 nM; that for `C[C@@H](Nc1ccccc1)[C@H]1CC[C@H]2[C@@H]3CC[C@@H]4C[C@](C)(O)CC[C@@H]4[C@H]3CC[C@]12C` [Example 25, (3R,5R,8R,9R,10S,13S,14S,17S)-3,13-dimethyl-17-((R)-1-(phenylamino)ethyl)hexadecahydro-1H-cyclopenta[a]phenanthren-3-ol] was less than 100 nM.
The value for `CCOC[C@@]1(O)CC[C@H]2[C@H](CC[C@@H]3[C@@H]2CC[C@]2(C)[C@@H]([C@@H](C)Cn4nnc(C)n4)CC[C@@H]32)C1` [Example 290, (3R,5R,8R,9R,10S,13S,14S,17R)-3-(ethoxymethyl)-13-methyl-17-((R)-1-(5-methyl-2H-tetrazol-2-yl)propan-2-yl)hexadecahydro-1H-cyclopenta[a]phenanthren-3-ol] was less than 100 nM; that for `C[C@@H](NC(=O)c1ccc(C#N)cc1F)[C@H]1CC[C@H]2[C@@H]3CC[C@@H]4C[C@](C)(O)CC[C@@H]4[C@H]3CC[C@]12C` [Example 130] was less than 100 nM; that for `CCOC[C@@]1(O)CC[C@@]2(C)[C@H](CC[C@@H]3[C@@H]2CC[C@]2(C)[C@@H]([C@@H](C)N[C@@H](C)c4ccccc4)CC[C@@H]32)C1` [Example 211] was 100 to 1000 nM.
As for `C[C@@]1(O)CC[C@H]2[C@H](CC[C@@H]3[C@@H]2CC[C@]2(C)[C@@H](CN4C[C@@H](c5ccccc5)CC4=O)CC[C@@H]32)C1` [Example 9, (R)-1-(((3R,5R,8R,9R,10S,13S,14S,17S)-3-hydroxy-3,13-dimethylhexadecahydro-1H-cyclopenta[a]phenanthren-17-yl)methyl)-4-phenylpyrrolidin-2-one], the figure is 100 to 1000 nM; as for `C[C@@H](Nc1ccc(C#N)cc1)[C@H]1CC[C@H]2[C@@H]3CC[C@@H]4C[C@](C)(O)CC[C@@H]4[C@H]3CC[C@]12C` [Example 33, 4-(((R)-1-((3R,5R,8R,9R,10S,13S,14S,17S)-3-hydroxy-3,13-dimethylhexadecahydro-1H-cyclopenta[a]phenanthren-17-yl)ethyl)amino)benzonitrile], less than 100 nM; as for `COC[C@@]1(O)CC[C@H]2[C@H](CC[C@@H]3[C@@H]2CC[C@]2(C)[C@@H]([C@H](C)Cc4cnc(C)cn4)CC[C@@H]32)C1` [Example 423], 100 to 1000 nM.
Regarding `CCC[C@@]1(O)CC[C@H]2[C@H](CC[C@@H]3[C@@H]2CC[C@]2(C)[C@@H]([C@@H](C)Nc4ccc(C#N)cn4)CC[C@@H]32)C1` [Example 90, 6-(((R)-1-((3R,5R,8R,9R,10S,13S,14S,17S)-3-hydroxy-13-methyl-3-propylhexadecahydro-1H-cyclopenta[a]phenanthren-17-yl)ethyl)amino)nicotinonitrile], the IC50 was in the range of 100 to 1000 nM.
